Test results taken from ChEMBL document CHEMBL2086262, “Ligand-based designing, in silico screening, and biological evaluation of new potent fructose-1,6-bisphosphatase (FBPase) inhibitors” (Eur J Med Chem, 2012).
The source made the active and inactive calls. The rule behind the calls is not given here.

Experiments:
[1] = Inhibition of human recombinant FBPase using fructose-1,6-biphosphate as substrate incubated for 3 mins prior to substrate addition by spectrophotometric analysis
[2] = species: Homo sapiens; test: Inhibition of human recombinant FBPase using fructose-1,6-biphosphate as substrate at 10 uM incubated for 3 mins prior to substrate addition by spectrophotometric analysis

Compound | IC50 [1] [nM] | inhibition [2]
O=S(=O)(O)c1ccccc1/C=N/N=C/c1ccccc1S(=O)(=O)O | 150 | 100%
COc1ccc(C(=O)/C=C2/Nc3ccc([N+](=O)[O-])cc3NC2=O)cc1 | 320 | 76%
COc1cc(/C=C/Cc2c(O)ccc3c2OCO3)cc(OC)c1OC |  | inactive
CC1(C)C2CCC1(C)C(OCCC/N=C(\N)CSS(=O)(=O)O)C2 (centres undefined) | 3800 | 81%
O=C(OCc1ccc([N+](=O)[O-])cc1)c1ccccc1[N+](=O)[O-] | 1650 | 100%
CCN1C(=O)/C(=C/c2ccc(O)c(S(=O)(=O)O)c2)SC1=S | 6020 | 69%
CC1(C)N=C(N)N=C(N)N1c1cccc(OCCOc2ccccc2[N+](=O)[O-])c1 | 250 | 100%
COc1cc(C2=N/C(=C\c3cccc(O)c3O)C(=O)O2)cc(OC)c1OC |  | inactive
CCOc1cc2ncnc(Nc3cccc(-c4nc(C(N)=O)cs4)c3)c2cc1OCC | 830 | 
CCOc1cc2ncnc(Nc3cc(-c4csc(C)n4)ccc3OC)c2cc1OCC | 990 | 
CCOc1cc2nc(-c3ccccc3)nc(Nc3cccc(Br)c3)c2cc1OCC | > 10000 | 
CCOc1cc2ncnc(Nc3cccc(C(C)=O)c3)c2cc1OCC | > 10000 | 
COc1cc2ncnc(Nc3cccc(Cl)c3)c2cc1OC [TYRPHOSTIN AG-1478] | 1300 | 
CCOc1cc2ncnc(Nc3cccc(-c4cncs4)c3)c2cc1OCC | 980 | 
CCOc1cc2nc(CS(C)(=O)=O)nc(Nc3cccc(-c4csc(C)n4)c3)c2cc1OCC | 2100 | 
CCOc1cc2nc(CCl)nc(Nc3cccc(-c4csc(C)n4)c3)c2cc1OCC | 870 | 
CCOc1ccc(-c2csc(C)n2)cc1Nc1ncnc2cc(OCC)c(OCC)cc12 | 1800 | 
CCOc1cc2ncnc(Nc3cccc(I)c3)c2cc1OCC | 2100 | 
Cc1nc(-c2cccc(Nc3ncnc4ccccc34)c2)cs1 | > 10000 | 
CCOc1cc2nc(CCCCl)nc(Nc3cccc(-c4csc(C)n4)c3)c2cc1OCC | 4100 | 
CCOc1cc2nc(CN3CCOCC3)nc(Nc3cccc(Br)c3)c2cc1OCC | > 10000 | 
CCOc1cc2ncnc(Nc3cccc(Cl)c3)c2cc1OCC | 1600 | 
CCOc1cc2c(Nc3cccc(-c4csc(C)n4)c3)ncnc2cc1OC(C)C | 420 | 
CCOc1cc2nc(CC(C)C)nc(Nc3cccc(-c4csc(C)n4)c3)c2cc1OCC | 1700 | 

Next, values leading:

IC50 [1] [nM] | inhibition [2] | Compound
2440 | 60% | Cc1cc(Cl)ccc1OCCCC(=O)NC(CC(C)C)C(=O)O (centres undefined)
5880 | 67% | O=C(CCCOc1ccc(Cl)cc1Cl)NC(CC1NCc2ccccc21)C(=O)O (centres undefined)
700 | 100% | C[N+](C)(CCCCOc1c(Br)cc(Br)cc1Br)Cc1ccc([N+](=O)[O-])o1
330 | 87% | CCOC(=O)c1csc(-c2csc(CCNC(=O)c3ccccc3)n2)n1
 | 37% | O=S(=O)(SCCCCSS(=O)(=O)c1ccc(Cl)cc1)c1ccc(Cl)cc1
 | inactive | O=C1NC(=O)C2N=C(CNc3ccc(C(=O)O)cc3)NC2N1 (centres undefined)
3460 | 77% | C=CCN1C(=O)/C(=C/c2ccccc2OCC(=O)O)SC1=S
1700 |  | CN(C)C(=O)CCc1c(C(=O)O)[nH]c2cc(Cl)cc(Cl)c12
1200 |  | O=C(O)CCCCc1c(C(=O)O)[nH]c2cc(Cl)cc(Cl)c12
> 10000 |  | CN(C)C(=O)c1[nH]c2cc(Cl)cc(Cl)c2c1CCC(=O)O
2230 | 74% | COC(=O)CC(=O)CC(=O)c1cccc([N+](=O)[O-])c1
900 | 87% | O=C(O)c1ccccc1C(=O)CCC(=O)c1ccccc1C(=O)O
